Test results taken from paper PMC4791841, “Nanomolar Inhibitors of Trypanosoma brucei RNA Triphosphatase” (mBio, 2016).
Read-outs that look alike come from different tables or passages of the source.

How the values were obtained:
TbCet1 [1] = target: T1, TbCet1 (Trypanosoma brucei brucei, UniProt Q582T2); experiment: colorimetric malachite green HTS assay of Pi release from ATP by TbCet1
T1 sequence (Q582T2 1-253): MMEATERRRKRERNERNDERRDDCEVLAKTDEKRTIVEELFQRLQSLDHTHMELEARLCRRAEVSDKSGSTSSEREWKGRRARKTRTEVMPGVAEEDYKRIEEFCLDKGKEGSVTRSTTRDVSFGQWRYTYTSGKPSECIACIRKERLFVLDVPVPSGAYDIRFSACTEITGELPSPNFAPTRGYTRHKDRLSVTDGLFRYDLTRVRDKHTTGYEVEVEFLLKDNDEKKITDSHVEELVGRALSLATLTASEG

TbCet1 [2] = target: T1, TbCet1; experiment: TLC assay for 32Pi release from [γ-32P]ATP, TbCet1; details: for IC50: 2.2 nM TbCet1, 0.2 mM ATP, 2 mM Mn2+, 10 min 37°C
CthTTM [3] = target: T2, CthTTM (Acetivibrio thermocellus, UniProt A3DIJ8); experiment: TLC assay for 32Pi release from [γ-32P]ATP, CthTTM; type: biochemical, Clostridium thermocellum; details: for IC50/IC50 TbCet1, CthTTM: ratio in parentheses
T2 sequence (A3DIJ8 1-156): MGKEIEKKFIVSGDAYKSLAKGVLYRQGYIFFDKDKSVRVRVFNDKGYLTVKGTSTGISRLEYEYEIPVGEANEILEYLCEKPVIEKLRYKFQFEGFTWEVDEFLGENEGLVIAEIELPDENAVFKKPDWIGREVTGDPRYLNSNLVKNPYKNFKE

MimiCE = target: T3, MimiCE (Acanthamoeba polyphaga mimivirus, UniProt Q5UQX1); experiment: biochemical; type: biochemical; details: for IC50/IC50 TbCet1, MimiCE: ratio in parentheses;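 for all read-outs here: mimivirus capping enzyme triphosphatase ATPase reaction, radiolabeled ATP hydrolysis to Pi quantified by TLC after 10 min, normalized to no-inhibitor control with 5% DMSO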
T3 construct: the N-terminal RTPase domain (amino acids [aa] 1 to 237) of mimivirus capping enzyme (MimiCE); HisSmt3 (N, cleaved yes); made in house; host or cells: Escherichia coli

SceCet1 = target: T4, SceCet1 (Saccharomyces cerevisiae, UniProt O13297); experiment: TLC assay for 32Pi release from [γ-32P]ATP, SceCet1; type: biochemical; details: for IC50/IC50 TbCet1, SceCet1: ratio in parentheses
T4 construct: C-terminal catalytic domain (aa 241 to 539) of S. cerevisiae RTPase (SceCet1); made in house; host or cells: Escherichia coli

Lef4 = target: T5, Lef4 (Autographa californica nuclear polyhedrosis virus, UniProt P41477); experiment: TLC assay for 32Pi release from [γ-32P]ATP, Lef4; type: biochemical, Autographa californica nucleopolyhedrovirus (AcNPV); details: for IC50/IC50 TbCet1, Lef4: ratio in parentheses;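 for all read-outs here: Lef4 RNA triphosphatase cleaving radiolabelled ATP over 10 min at 37°C, hydrolysis set relative to inhibitor-free 5% DMSO controls, comparisons made against TbCet1 tested the same way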
T5 construct: the N-terminal RTPase domain (aa 1 to 236) of AcNPV Lef4 capping enzyme; HisSmt3 (N, cleaved yes); made in house; host or cells: Escherichia coli

CthTTM [4] = experiment: TLC assay for 32Pi release from [γ-32P]ATP, CthTTM; type: biochemical, Clostridium thermocellum
[5] = 500 nM CthTTM, 37°C, read-out: IC50 CthTTM
[6] = 7 nM MimiCE, 37°C, read-out: IC50 MimiCE
[7] = 50 nM Lef4, 37°C, read-out: IC50 Lef4

T3 sequence (Q5UQX1 1-237): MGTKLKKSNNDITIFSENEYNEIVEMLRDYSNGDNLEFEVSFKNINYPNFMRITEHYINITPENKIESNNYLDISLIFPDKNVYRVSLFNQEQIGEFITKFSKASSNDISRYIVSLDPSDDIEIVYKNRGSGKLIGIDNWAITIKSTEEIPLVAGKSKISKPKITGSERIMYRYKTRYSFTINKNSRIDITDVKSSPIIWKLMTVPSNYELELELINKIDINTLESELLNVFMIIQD
T4 sequence (O13297 241-539): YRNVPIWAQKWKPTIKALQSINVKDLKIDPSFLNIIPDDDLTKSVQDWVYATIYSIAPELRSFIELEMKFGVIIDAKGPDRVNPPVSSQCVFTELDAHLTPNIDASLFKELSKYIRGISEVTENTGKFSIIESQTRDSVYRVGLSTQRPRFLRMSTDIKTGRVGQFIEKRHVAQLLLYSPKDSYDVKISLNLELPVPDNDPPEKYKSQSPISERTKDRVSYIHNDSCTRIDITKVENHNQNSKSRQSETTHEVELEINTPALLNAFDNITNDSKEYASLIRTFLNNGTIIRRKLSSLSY
T5 sequence (P41477 1-236): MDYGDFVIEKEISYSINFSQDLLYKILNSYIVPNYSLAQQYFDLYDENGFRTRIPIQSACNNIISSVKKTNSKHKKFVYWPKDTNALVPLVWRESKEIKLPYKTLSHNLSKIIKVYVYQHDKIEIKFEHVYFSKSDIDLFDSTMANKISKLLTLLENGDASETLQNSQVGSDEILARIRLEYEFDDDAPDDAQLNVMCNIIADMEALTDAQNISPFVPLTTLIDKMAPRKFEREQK

Compound | IC50 (TbCet1 [1]) | IC50 (TbCet1 [2]; IC50 TbCet1 by 32P assay) | IC50 (CthTTM [3]; [5]) | IC50 (MimiCE) | IC50 (SceCet1) | IC50 (Lef4) | IC50 (CthTTM [3]) | IC50/IC50 TbCet1, CthTTM (CthTTM [3]) | IC50 (MimiCE; [6]) | IC50/IC50 TbCet1, MimiCE (MimiCE) | IC50/IC50 TbCet1, SceCet1 (SceCet1) | IC50/IC50 TbCet1, Lef4 (Lef4) | IC50 (Lef4; [7]) | other results
O=C(/C=C/c1ccc(O)c(O)c1)O[C@H](Cc1ccc(O)c(O)c1)C(=O)O [Compound 3A, rosmarinic acid] | 0.05 µM | 0.12 µM |  |  |  |  |  |  |  |  |  |  |  | 
O=C(O)/C=C/c1ccc(O)c(O)c1 [Compound 3B, caffeic acid] |  | 29 µM | 310 µM | > 500 µM | > 500 µM | 75 µM |  |  |  |  |  |  |  | activity against MimiCE (in words) (MimiCE): inactive
O=C(O)C1OC(Oc2c(-c3ccc(O)c(O)c3)oc3cc(O)cc(O)c3c2=O)C(O)C(O)C1O (stereo not shown) [Compound 4A, miquelianin] | 0.18 µM | 0.18 µM |  |  | 43 µM | 29 µM | 24 µM | 133 | 19 µM | 106 | 239 | 161 |  | 
O=c1c(O)c(-c2cc(O)c(O)c(O)c2)oc2cc(O)cc(O)c12 [Compound 4B, myricetin] | 0.23 µM | 0.36 µM |  |  |  |  |  |  |  |  |  |  |  | 
Oc1cc(O)c2c(c1)O[C@H](c1ccc(O)c(O)c1)[C@H](O)C2 [Compound 4C, epicatechin] | 0.26 µM | 0.25 µM | 26 µM |  | 8.7 µM | 34 µM |  | 104 | 10 µM | 40 | 35 | 136 |  | 
O=C(CCO)c1ccc(O)cc1 [Compound 5, 3-hydroxy-1-(4-hydroxyphenyl)propan-1-one] | 0.63 µM | 0.64 µM | 9.2 µM |  | > 500 µM | 160 µM |  | 14 | 84 µM | 131 |  | 250 |  | activity against SceCet1 (in words) (SceCet1): no effect
O=C(/C=C/c1ccc(O)c(O)c1)O[C@@H]1[C@H](OC(=O)/C=C/c2ccc(O)c(O)c2)C[C@]2(OC(=O)/C=C/c3ccc(O)c(O)c3)C[C@H]1OC2=O [Compound 6A, 1,4,5-tricaffeoylquinide] |  | 0.12 µM |  | 2 µM | 2 µM |  | 6.4 µM | 53 |  | 17 | 17 | 22 | 2.6 µM | 
O=C(C=Cc1ccccc1)OC1C=C(C(=O)O)CC(OC(=O)C=Cc2ccccc2)C1OC(=O)C=Cc1ccccc1 (stereo not shown) [Compound 6B, 3,4,5-tricinnamoylshikimic acid] |  |  |  |  |  |  |  |  | 19 µM | 13 |  | 7 | 10 µM | fold lower potency against CthTTM than against TbCet1 (CthTTM [4]): 100 fold; IC50 (CthTTM [4]; 500 nM CthTTM, 37°C): 150 µM; IC50/IC50 TbCet1, CthTTM (CthTTM [4]; ratio in parentheses): 100; activity against SceCet1 (in words) (SceCet1): inactive; IC50 (SceCet1; 25 nM SceCet1, 30°C, read-out: IC50 SceCet1): > 500 µM; IC50 (TbCet1 [2]; read-out: IC50 TbCet1 by 32P assay): 1.5 µM
CC(=O)O[C@@]12C[C@@H](OC(=O)/C=C/c3ccc(O)c(O)c3)[C@@H](OC(=O)/C=C/c3ccc(O)c(O)c3)[C@@H](C1)OC2=O [Compound 6C, 1-acetyl,4,5-dicaffeoylquinide] |  | 3.6 µM |  | 15 µM | 14 µM |  | 46 µM | 13 |  | 4 | 4 | 6 | 21 µM | fold lowered potency against TbCet1 versus compound 6A (TbCet1 [2]; acetate for the R1 caffeic acid): 30 fold
pentagalloylgalloylglucose [tannic acid] |  |  |  |  |  |  |  |  |  |  |  |  |  | IC50 (TbCet1 [1]; read-out: IC50 TbCet1, small-scale test library screens performed here and previously [37]): 0.06 µM
